Data on 18 compounds can be found in patent US4959361A, “Triazolo(4,3-A)(1,4)benzodiazepines and thieno (3,2-F)(1,2,4)triazolo(4,3-A)(1,4)diazepine compounds which have useful activity as platelet activating factor (PAF) antagonists” (Hoffmann-La Roche Inc., priority 1988, dated 1990).

Assay [1] concerns PAF Induced Bronchoconstriction. Put plainly: PAF induced bronchoconstriction assay, intravenous testing. It is filed as in vivo, guinea pig. The following applies: for % inhibition of bronchoconstriction: Table II (*), at 0. mg/kg i.v. (dose digit cut off); for ED50: Cavia porcellus, iv, 1 min, i.v., 1 minute pretreatment, PAF 1 μg/kg i.v., read-out: Bronchoconstriction ID-50 i.v. The protocol: Male animals (Hartlet Strain, 400-500 g were anesthetized with urethane (2 g/kg, i.p.). Each animals' trachea was cannulated and the guinea pigs were respirated using a Harvard small animal rodent respirator (3.0 cc stroke volume, 40 breaths per min.). Tracheal pressure was recorded from a cannula inserted in the trachea and connected to a Statham pressure transducer.
The jugular vein was cannulated for administering compounds. Spontaneous breathing was arrested with succinylcholine (1.2 mg/kg, i.v.) administered 2 minutes prior to intravenous injection of platelet activating factor PAF).
For the intravenous testing, the guinea pig is given a 1-minute pretreatment with propranolol at a dose of 0.1 mg/kg intravenously. The test compound is administered with a 1 minute pretreatment prior to intravenous challenge with PAF. The animal is then challenged with a 1 μg/kg intravenous dose of PAF and the change in tracheal pressure is measured.
The change in tracheal pressure is determined by subtracting the steady state baseline achieved after administration of succinylcholine from the peak broncho. constriction seen after challenge with PAF. The mean is calculated for each test compound and compared to the mean of the control animals to give the percent inhibition of bronchoconstriction. The standard error is calculated as the standard error of the mean.

Assay [2] shares this test system. Put plainly: PAF induced bronchoconstriction assay, oral testing. It is filed as in vivo, guinea pig. The conditions noted are these: Cavia porcellus, po, 2 hr; for inhibition in vivo at 3 mg/kg: Table II (*), 3 mg/kg p.o.; for inhibition in vivo at 0.3 mg/kg: at a dose of 0.3 mg/kg p.o.; for ED50: p.o., read-out: Bronchoconstriction ID-50 p.o. 2 hr.
For assay [3], the target named is T1, PAF-binding, dog platelets (Canis lupus familiaris, UniProt A0A8I3NSH0).
T1 construct: dog platelets; from tissue; host or cells: washed platelets from citrated dog blood
T1 sequence (A0A8I3NSH0 1-343): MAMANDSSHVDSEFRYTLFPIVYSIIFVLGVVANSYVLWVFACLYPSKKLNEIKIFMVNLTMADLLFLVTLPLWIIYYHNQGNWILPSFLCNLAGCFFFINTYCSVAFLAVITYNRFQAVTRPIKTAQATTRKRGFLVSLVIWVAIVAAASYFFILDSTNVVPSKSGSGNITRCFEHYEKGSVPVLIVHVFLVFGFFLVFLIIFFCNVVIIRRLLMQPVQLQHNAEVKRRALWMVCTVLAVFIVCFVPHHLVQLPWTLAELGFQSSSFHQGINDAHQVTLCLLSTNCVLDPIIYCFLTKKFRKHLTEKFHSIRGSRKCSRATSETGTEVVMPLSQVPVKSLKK
Put plainly: PAF binding assay (radiolabelled H-PAF, washed dog platelets). The conditions noted are these: 10 minutes at room temperature, read-out: PAF-binding IC-50. How it is done:
The binding assay was done in […] polyethylene microcentrifuge tubes (Beckman) containing 50 μl of an oil mixture of 2 parts Siliconol AR200 (Serva): 1 part Silicone Fluid (Arthur H. Thoma). Buffer, standards, or analogs (150 μl total volume) were added to the tubes. Radiolabelled H-PAF (50 μl) was then added to the tubes. The reaction was started by the addition of 50 μl of dog platelets (2×10^7 platelets). The tubes were capped, inverted several times to mix, and incubated for 10 minutes at room temperature. The platelets were separated from the incubation mixture by centrifuging 1 minute in a Beckman Microfuge B centrifuge. The tip of the microfuge tube was cut off, and the platelets were washed out of the tip with 200 μl of 50% methanol (Burdick and Jackson). Aquasol (NEN, 10 ml) was added and the radioactivity in the samples was determined using an LS 8100 Beckman liquid scintillation counter linked to a Techtran tape recorder Data was processed through an in-house computer system. Alternatively, radioactivity was determined using a Searle Mark III liquid scintillation counter linked to a Iso-Data microprocessor.
(b) preparation of platelets
Blood was collected from anesthesized or unanesthesized dogs into 50 ml plastic centrifuge tubes containing 3.8% sodium citrate as the anticoagulant (1 volume of citrate/9 volumes of blood). The red cells were removed by centrifugation for 15 minutes at 600 rpm (100-125 g) at room temperature. An aliquot of the supernatant platelet rich plasma (PRP) was saved for cell counting and the remainder was acidified to pH 6.5 with 0.15M citric acid. The platelet pellet was obtained after a 10 minute centrifugation at 2000 rpm (1000 g) at room temperature. Washed platelets were prepared by resuspending the platelet pellet once with pBS containing 1 mM EDTA, centrifuging as noted, and then resuspending the platelets in 0.1% BSA pBS. An aliquot of the washed platelets was counted. Platelets used for binding assays were diluted to 2×10^7 platelets/assay tube (4×10^8 platelets/ml). platelet countinq was done using a Royco Cell-Crit 921.

Where [4] appears, read: Table II, triazolobenzodiazepines.
Where [5] appears, read: Table I, triazolothienodiazepines.

A word on the inhibition in vivo: it is the share of the control response that was lost under treatment.

Where two headings read alike, the source gives them in different places.

As to `Cc1nnc2n1-c1ccc(C#CCN3C(=O)c4cccc5cccc3c45)cc1C(c1ccccc1F)=NC2`, the “% inhibition of bronchoconstriction” value in assay [1] is on record as 99%. This compound returned an inhibition in vivo at 3 mg/kg in assay [2] of 57%. Besides, in assay [3] (setting [4]), the IC50 is 20 nM.

As for `Cc1nnc2n1-c1sc(C#CCn3cnc4c3c(=O)n(C)c(=O)n4C)cc1C(c1ccccc1Cl)=NC2`, in assay [1] (Table I), the ED50 was determined as 0.043 mg/kg. This compound also yielded an inhibition in vivo at 0.3 mg/kg in assay [2] (Table I) of 27%. In addition, in assay [3] (setting [5]), the IC50 is 20 nM.

With `Cc1nnc2n1-c1ccc(C#CCN3C(=O)c4ccccc4C3=O)cc1C(c1ccccc1Cl)=NC2`, the ED50 in assay [1] (Table II) was 0.019 mg/kg; in assay [2] (Table II), 1.4 mg/kg. Moreover, in assay [3] (setting [4]), the IC50 came to 20 nM.

As for `Cc1nnc2n1-c1sc(C#CCn3c(=O)c4ccccc4c4ccccc4c3=O)cc1C(c1ccccc1Cl)=NC2`, the ED50 in assay [1] (Table I) amounted to 0.01 mg/kg; in assay [2] (Table I) it was 0.015 mg/kg. For the same compound, the IC50 in assay [3] (setting [5]) was determined as 51 nM.

Turning to `Cc1nnc2n1-c1ccc(C#CCN3C(=O)c4ccccc4C3=O)cc1C(c1ccccc1F)=NC2`, the ED50 in assay [1] (Table II) amounted to 0.013 mg/kg; in assay [2] (Table II), 0.52 mg/kg. In assay [3] (setting [4]), the IC50 was 10 nM.

Consider `Cc1nnc2n1-c1sc(C#CCn3c4ccccc4c4ccccc43)cc1C(c1ccccc1Cl)=NC2`, for which the ED50 in assay [1] (Table I) and in assay [2] (Table I) was 0.016 mg/kg in each case. Moreover, the IC50 in assay [3] (setting [5]) came to 120 nM.

For the compound `Cc1nnc2n1-c1sc(C#CCn3c(=O)n(-c4ccccc4)c4ccccc43)cc1C(c1ccccc1Cl)=NC2`, the values for the ED50 in assay [1] (Table I) and in assay [2] (Table I) were 0.008 mg/kg and 0.015 mg/kg, respectively. Moreover, the IC50 in assay [3] (setting [5]) is less than 1 nM.

Consider `Cc1nnc2n1-c1sc(C#CCN3C(=O)c4cccc5cccc(c45)C3=O)cc1C(c1ccccc1Cl)=NC2`, for which the ED50 was less than 0.1 mg/kg in assay [1] (Table I) and 0.025 mg/kg in assay [2] (Table I). Also, the IC50 in assay [3] (setting [5]) worked out at 12 nM.

Consider `CCc1nnc2n1-c1ccc(C#CCN3C(=O)c4ccccc4C3=O)cc1C(c1ccccc1F)=NC2` [2-[3-[1-Ethyl-6-(2-fluorophenyl)-4H-[1,2,4]triazolo[4,3-a][1, 4]benzodiazepin-8-yl]-2-propynyl]-1H-isoindole-1,3(2H)dione semihydrate], for which the values for the ED50 in assay [1] (Table II) and in assay [2] (Table II) were 0.054 mg/kg and 1.5 mg/kg, respectively. The IC50 in assay [3] (setting [4]) was 100 nM.

Turning to `Cc1nnc2n1-c1sc(C#CCn3ncc4ccccc43)cc1C(c1ccccc1Cl)=NC2`, the ED50 in assay [1] (Table I) came to 0.002 mg/kg; in assay [2] (Table I) it was 0.015 mg/kg. Further, the IC50 in assay [3] (setting [5]) amounted to 1 nM.

`Cc1nnc2n1-c1sc(C#CCn3c4c(c5ccccc53)CCCC4)cc1C(c1ccccc1Cl)=NC2`: the figures for the ED50 in assay [1] (Table I) and in assay [2] (Table I) were 0.005 mg/kg and 0.006 mg/kg, respectively. For the same compound, the IC50 in assay [3] (setting [5]) stood at 7 nM.

As to `Cc1nnc2n1-c1sc(C#CCN3C(=O)CCc4cc(Cl)cc(Cl)c43)cc1C(c1ccccc1Cl)=NC2`, the ED50 in assay [1] (Table I) was found to be 0.006 mg/kg; in assay [2] (Table I) it was 0.021 mg/kg. Moreover, the IC50 in assay [3] (setting [5]) was less than 1 nM.

With `COC1c2ccccc2C(=O)N1CC#Cc1ccc2c(c1)C(c1ccccc1F)=NCc1nnc(C)n1-2` (stereo not drawn), the “% inhibition of bronchoconstriction” value in assay [1] is listed as 99%. The inhibition in vivo at 3 mg/kg in assay [2] is 100%. Further, in assay [3] (setting [4]), the IC50 was 100 nM.

`Cc1nnc2n1-c1sc(C#CCN3C(=O)CCc4ccccc43)cc1C(c1ccccc1Cl)=NC2`: the ED50 in assay [1] (Table I) is 0.004 mg/kg; in assay [2] (Table I), 0.015 mg/kg. Besides, the IC50 in assay [3] (setting [5]) was 0.2 nM.

With `Cc1nnc2n1-c1sc(C#CCn3c(=O)c4ccccc4c4ccccc43)cc1C(c1ccccc1Cl)=NC2`, the ED50 in assay [1] (Table I) turned out to be 0.016 mg/kg; in assay [2] (Table I), 0.012 mg/kg. For the same compound, the IC50 in assay [3] (setting [5]) is 13 nM.

As to `Cc1nnc2n1-c1sc(C#CCN3Cc4cccc5cccc(c45)C3=O)cc1C(c1ccccc1Cl)=NC2`, the ED50 worked out at 0.01 mg/kg in assay [1] (Table I) and 0.009 mg/kg in assay [2] (Table I). For the same compound, in assay [3] (setting [5]), the IC50 was found to be 3.5 nM.

As to `Cc1nnc2n1-c1sc(C#CCC34CCCc5cccc(c53)NC4=O)cc1C(c1ccccc1Cl)=NC2` (stereo not drawn), the ED50 in assay [1] (Table I) worked out at 0.008 mg/kg. This compound came in with an inhibition in vivo at 0.3 mg/kg in assay [2] (Table I) of 24%. In assay [3] (setting [5]), the IC50 was 0.7 nM.

For `Cc1nnc2n1-c1sc(C#CCn3c(=O)ccc4ccccc43)cc1C(c1ccccc1Cl)=NC2`, the results for the ED50 in assay [1] (Table I) and in assay [2] (Table I) were 0.006 mg/kg and 0.016 mg/kg, respectively. For the same compound, in assay [3] (setting [5]), the IC50 amounted to 2 nM.
